Measurements from PubChem BioAssay (NCI).
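48-hour exposure; five concentrations; linearly interpolated endpoints. Abbreviation: GI50, concentration required for 50% inhibition of growth. TGI denotes the concentration required for complete inhibition of growth.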

Assays:
Test in all cases: NCI-60 cell line screen, 48 h
OVCAR-3 ovarian = test system: OVCAR-3 ovarian
UACC-62 melanoma = test system: UACC-62 melanoma
SK-OV-3 ovarian = test system: SK-OV-3 ovarian
UACC-257 melanoma = test system: UACC-257 melanoma
ACHN renal = test system: ACHN renal
RPMI-8226 leukemia = test system: RPMI-8226 leukemia
NCI-H226 lung = test system: NCI-H226 lung
A498 renal = test system: A498 renal
SK-MEL-5 melanoma = test system: SK-MEL-5 melanoma
SR leukemia = test system: SR leukemia

N#CC(C(=O)/C(=N\Nc1nc(=S)[nH]n1N)C(C#N)c1ccc(Cl)cc1)c1ccc(Cl)cc1 (centres undefined)
TGI (OVCAR-3 ovarian): > 100 µM | TGI (UACC-62 melanoma): > 100 µM | TGI (SK-OV-3 ovarian): > 100 µM | TGI (UACC-257 melanoma): > 100 µM | TGI (ACHN renal): > 100 µM | TGI (RPMI-8226 leukemia): > 100 µM | TGI (NCI-H226 lung): > 100 µM | TGI (A498 renal): > 100 µM

CC(=O)c1ccc(NC(=O)CSc2nnc(-c3cc(-c4ccc(C)cc4)nc4ccccc34)o2)cc1
GI50 (OVCAR-3 ovarian): 3.22 µM | TGI (OVCAR-3 ovarian): > 100 µM | GI50 (UACC-62 melanoma): 24.2 µM | TGI (UACC-62 melanoma): > 100 µM | GI50 (SK-OV-3 ovarian): 2.64 µM | TGI (SK-OV-3 ovarian): 8.22 µM | GI50 (UACC-257 melanoma): > 100 µM | TGI (UACC-257 melanoma): > 100 µM | GI50 (SK-MEL-5 melanoma): 3.42 µM | TGI (SK-MEL-5 melanoma): > 100 µM | GI50 (RPMI-8226 leukemia): 3.37 µM | TGI (RPMI-8226 leukemia): > 100 µM | GI50 (NCI-H226 lung): 2.39 µM | TGI (NCI-H226 lung): 6.37 µM | GI50 (A498 renal): 2.3 µM | TGI (A498 renal): 7.5 µM

O=S(O)CCCCCSSCCCCSSCCCCCS(=O)O
TGI (OVCAR-3 ovarian): > 100 µM | TGI (UACC-62 melanoma): > 100 µM | TGI (SK-OV-3 ovarian): > 100 µM | TGI (UACC-257 melanoma): > 100 µM | TGI (ACHN renal): > 100 µM | TGI (SK-MEL-5 melanoma): > 100 µM | TGI (RPMI-8226 leukemia): > 100 µM | TGI (A498 renal): > 100 µM

Cc1ccc(C2NC(=S)NC3=C2CCOc2c3ccc3ccccc23)cc1 (centres undefined)
GI50 (SK-OV-3 ovarian): > 100 µM | TGI (SK-OV-3 ovarian): > 100 µM | GI50 (UACC-257 melanoma): > 100 µM | TGI (UACC-257 melanoma): > 100 µM | GI50 (ACHN renal): 44 µM | TGI (ACHN renal): > 100 µM | GI50 (NCI-H226 lung): > 100 µM | TGI (NCI-H226 lung): > 100 µM

CCOC(=O)N1CCc2cc(OC)c(OC)c3c2C1CC3=O (centres undefined)
TGI (UACC-62 melanoma): > 100 µM | TGI (SK-OV-3 ovarian): > 100 µM | TGI (UACC-257 melanoma): > 100 µM | TGI (SR leukemia): > 100 µM | TGI (ACHN renal): > 100 µM | TGI (SK-MEL-5 melanoma): > 100 µM | TGI (RPMI-8226 leukemia): > 100 µM | TGI (A498 renal): > 100 µM

CCOC(=O)C(=O)Nc1ccc(C)cc1C
TGI (OVCAR-3 ovarian): > 100 µM | TGI (UACC-62 melanoma): > 100 µM | TGI (SK-OV-3 ovarian): > 100 µM | TGI (UACC-257 melanoma): > 100 µM | TGI (SR leukemia): > 100 µM | TGI (ACHN renal): > 100 µM | TGI (SK-MEL-5 melanoma): > 100 µM | TGI (RPMI-8226 leukemia): > 100 µM | TGI (NCI-H226 lung): > 100 µM

COc1ccc(C2=NNC(=O)OC2c2ccccc2)cc1 (centres undefined)
TGI (OVCAR-3 ovarian): > 100 µM | TGI (UACC-62 melanoma): > 100 µM | TGI (UACC-257 melanoma): > 100 µM | TGI (SR leukemia): > 100 µM | TGI (ACHN renal): > 100 µM | TGI (RPMI-8226 leukemia): > 100 µM | TGI (NCI-H226 lung): > 100 µM | TGI (A498 renal): > 100 µM

CS(=O)CCCCCN=C=S (centres undefined)
GI50 (OVCAR-3 ovarian): 3.07 µM | TGI (OVCAR-3 ovarian): 10.1 µM | GI50 (UACC-62 melanoma): 2.93 µM | TGI (UACC-62 melanoma): 12.5 µM | GI50 (SK-OV-3 ovarian): 13.7 µM | TGI (SK-OV-3 ovarian): 27.3 µM | GI50 (UACC-257 melanoma): 4.35 µM | TGI (UACC-257 melanoma): 19.7 µM | GI50 (ACHN renal): 4.07 µM | TGI (ACHN renal): 16.5 µM | GI50 (SK-MEL-5 melanoma): 5.3 µM | TGI (SK-MEL-5 melanoma): 17.9 µM | GI50 (RPMI-8226 leukemia): 3.79 µM | TGI (RPMI-8226 leukemia): 14.5 µM | GI50 (NCI-H226 lung): 17.5 µM | TGI (NCI-H226 lung): 44.4 µM | GI50 (A498 renal): 10.4 µM | TGI (A498 renal): 23.5 µM

Cn1c2c(c3ccccc31)C1CCCCC1C1C(=O)NC(=O)C21 (centres undefined)
TGI (OVCAR-3 ovarian): 58 µM | TGI (UACC-62 melanoma): > 100 µM | TGI (SK-OV-3 ovarian): > 100 µM | TGI (SR leukemia): > 100 µM | TGI (ACHN renal): > 100 µM | TGI (SK-MEL-5 melanoma): > 100 µM | TGI (RPMI-8226 leukemia): > 100 µM | TGI (NCI-H226 lung): > 100 µM | TGI (A498 renal): > 100 µM

COc1cc(/C=C/c2cc(/C=C/c3ccc(O)c(OC)c3)n(-c3c(C)cccc3C)c(=O)n2)ccc1O
GI50 (OVCAR-3 ovarian): 1.37 µM | TGI (OVCAR-3 ovarian): 6.6 µM | GI50 (UACC-62 melanoma): 0.635 µM | TGI (UACC-62 melanoma): 3.28 µM | GI50 (SK-OV-3 ovarian): 0.438 µM | TGI (SK-OV-3 ovarian): 3.37 µM | GI50 (UACC-257 melanoma): 1.62 µM | TGI (UACC-257 melanoma): 6.54 µM | GI50 (ACHN renal): 0.399 µM | TGI (ACHN renal): 10.6 µM | GI50 (SK-MEL-5 melanoma): 0.559 µM | TGI (SK-MEL-5 melanoma): 1.9 µM | GI50 (NCI-H226 lung): 2.36 µM | TGI (NCI-H226 lung): 7.59 µM | GI50 (A498 renal): 2.4 µM | TGI (A498 renal): 6.08 µM

O=C(CC1(O)C(=O)Nc2ccccc21)c1ccccc1Cl (centres undefined)
TGI (OVCAR-3 ovarian): > 100 µM | TGI (UACC-62 melanoma): > 100 µM | TGI (SK-OV-3 ovarian): > 100 µM | TGI (UACC-257 melanoma): > 100 µM | TGI (ACHN renal): > 100 µM | TGI (SK-MEL-5 melanoma): > 100 µM | TGI (RPMI-8226 leukemia): > 100 µM | TGI (NCI-H226 lung): > 100 µM | TGI (A498 renal): > 100 µM

Cc1ccc(NC(=O)c2cccc([N+](=O)[O-])c2O)c([N+](=O)[O-])c1
TGI (OVCAR-3 ovarian): 44.1 µM | TGI (UACC-62 melanoma): 24.8 µM | TGI (SK-OV-3 ovarian): 57.8 µM | TGI (UACC-257 melanoma): 33.4 µM | TGI (ACHN renal): 58.1 µM | TGI (RPMI-8226 leukemia): > 100 µM | TGI (NCI-H226 lung): 8.4 µM | TGI (A498 renal): 31.5 µM

CC(C)c1ccccc1NC(=O)C(=O)Cc1nc2ccccc2s1
TGI (OVCAR-3 ovarian): > 100 µM | TGI (UACC-62 melanoma): > 100 µM | TGI (SK-OV-3 ovarian): > 100 µM | TGI (UACC-257 melanoma): > 100 µM | TGI (SR leukemia): > 100 µM | TGI (ACHN renal): > 100 µM | TGI (SK-MEL-5 melanoma): > 100 µM | TGI (NCI-H226 lung): > 100 µM | TGI (A498 renal): > 100 µM

COc1ccc(/C=C2\CCCCC2=O)cc1
TGI (OVCAR-3 ovarian): > 100 µM | TGI (UACC-62 melanoma): > 100 µM | TGI (SK-OV-3 ovarian): > 100 µM | TGI (ACHN renal): > 100 µM | TGI (SK-MEL-5 melanoma): > 100 µM | TGI (A498 renal): > 100 µM

CN(C)c1ccc(C(=C2C=CC(=[N+](C)C)C=C2)c2ccc(N(C)C)cc2)cc1 (tested in a mixture with another compound)
GI50 (OVCAR-3 ovarian): 0.133 µM | TGI (OVCAR-3 ovarian): 0.949 µM | TGI (UACC-62 melanoma): 1.24 µM | TGI (SK-OV-3 ovarian): 0.933 µM | GI50 (UACC-257 melanoma): 0.211 µM | TGI (UACC-257 melanoma): 1.3 µM | GI50 (SR leukemia): 0.0313 µM | TGI (SR leukemia): 0.106 µM | GI50 (ACHN renal): 0.233 µM | TGI (ACHN renal): 1.48 µM | GI50 (SK-MEL-5 melanoma): 0.133 µM | TGI (SK-MEL-5 melanoma): 0.289 µM | GI50 (RPMI-8226 leukemia): 0.04 µM | GI50 (A498 renal): 0.0607 µM | TGI (A498 renal): 0.343 µM

CN1C2(c3ccccc3)c3c(-c4ccccc4)sc(-c4ccccc4)c3C1(c1ccccc1)C1C(=O)N(c3ccccc3)C(=O)C12 (centres undefined)
TGI (OVCAR-3 ovarian): > 100 µM | TGI (UACC-62 melanoma): > 100 µM | TGI (SK-OV-3 ovarian): > 100 µM | TGI (UACC-257 melanoma): > 100 µM | TGI (ACHN renal): > 100 µM | TGI (SK-MEL-5 melanoma): > 100 µM | TGI (RPMI-8226 leukemia): > 100 µM | TGI (NCI-H226 lung): > 100 µM | TGI (A498 renal): > 100 µM

COc1cc2c(cc1OC)-c1cc3cc(OC)c(OC)cc3n1CC2
TGI (OVCAR-3 ovarian): > 100 µM | TGI (UACC-62 melanoma): > 100 µM | TGI (SK-OV-3 ovarian): > 100 µM | TGI (UACC-257 melanoma): > 100 µM | TGI (SR leukemia): > 100 µM | TGI (ACHN renal): 85.9 µM | TGI (RPMI-8226 leukemia): > 100 µM | TGI (NCI-H226 lung): 73.5 µM | TGI (A498 renal): 50.6 µM

CCCCCCCC/C=C/CCCCCCCC1=NCC[N+]1(CCO)CCO
GI50 (OVCAR-3 ovarian): 1.94 µM | TGI (OVCAR-3 ovarian): 4.42 µM | GI50 (UACC-62 melanoma): 5 µM | TGI (UACC-62 melanoma): 21.4 µM | GI50 (SK-OV-3 ovarian): 10.1 µM | TGI (SK-OV-3 ovarian): 24.4 µM | GI50 (UACC-257 melanoma): 2.25 µM | TGI (UACC-257 melanoma): 8.42 µM | GI50 (ACHN renal): 6.11 µM | TGI (ACHN renal): 20.8 µM | GI50 (SK-MEL-5 melanoma): 2.24 µM | TGI (SK-MEL-5 melanoma): 5.68 µM | GI50 (RPMI-8226 leukemia): 2.71 µM | TGI (RPMI-8226 leukemia): 10.8 µM | GI50 (NCI-H226 lung): 4.16 µM | TGI (NCI-H226 lung): 19.8 µM | GI50 (A498 renal): 2.21 µM | TGI (A498 renal): 14.2 µM

Cc1cc2cc3cc(C)c(N(C)C)cc3nc2cc1N(C)C
GI50 (OVCAR-3 ovarian): 2.54 µM | TGI (OVCAR-3 ovarian): 11.1 µM | GI50 (UACC-62 melanoma): 2.97 µM | TGI (UACC-62 melanoma): 17.2 µM | GI50 (SK-OV-3 ovarian): 2.87 µM | TGI (SK-OV-3 ovarian): 25.4 µM | GI50 (UACC-257 melanoma): 3.37 µM | TGI (UACC-257 melanoma): 21.8 µM | GI50 (ACHN renal): 4.76 µM | TGI (ACHN renal): > 100 µM | GI50 (SK-MEL-5 melanoma): 1.73 µM | TGI (SK-MEL-5 melanoma): 4.71 µM | GI50 (RPMI-8226 leukemia): 4.16 µM | TGI (RPMI-8226 leukemia): > 100 µM | GI50 (NCI-H226 lung): 3.19 µM | TGI (NCI-H226 lung): 24 µM | GI50 (A498 renal): 4.32 µM | TGI (A498 renal): 26.2 µM
